Literature values in EP4434551A1, “METHOD FOR DIAGNOSING AND TREATING NIS-EXPRESSING CARCINOMAS AND METASTASES” (Nuske, Andreas, priority 2023, dated 2024).

System: NIS gene
Settings: breast cancer cell line MCF-7

SMILES: CC1=C(/C=C/C(C)=C/C=C/C(C)=C/C(=O)O)C(C)(C)CCC1 [tRA, trans-retinoic acid]
- induction of the NIS gene: induction of the NIS gene
